Assay results taken from patent US11229204B2, “Herbicidal composition comprising at least one phenolic active compound” (UNIVERSITÉ DE LIÈGE, priority 2018, dated 2022).

Experiments:
[1] = tested on: Raphanus sativus and Lepidium sativum; conditions: 27 flavonoids tested; only poor results on radical elongation for the highest tested concentration of 10^−4M; cited from earlier work
Trifolium incarnatum = experiment: Pre-emergence activity, experiment n° 2: hypocotyl and root lengths of seeds on moistened filter paper; assay type: in vivo; conditions: 100 mg/L in methanol 1%
Method: Seeds of Trifolium incarnatum were obtained from ECOSEM industry (Belgium). Filter papers were placed in petri dishes and moistened with 2 ml of methanol 1% solution for the seedling control, or with myricitrin solution at 100 mg/L in methanol 1% for the treated seedling. Methanol was identified as a solvent not interfering with the pre-emergence of plants. Ten seeds of Trifolium incarnatum were then placed immediately in each petri dish and three replicates were prepared. All petri dishes were randomly placed in a growth chamber at a temperature of 23±1° C., in the dark and the hypocotyls and root lengths were measured after 7 days.

## COc1c(-c2ccccc2)oc2ccccc2c1=O [3-OCH3-flavone]
[1]
  effect on germination and radical elongation: act on germination and on radical elongation

## COc1ccc(-c2cc(=O)c3ccccc3o2)cc1OC [3′,4′-di-OCH3-flavone]
[1]
  effect on germination and radical elongation: act on germination and on radical elongation

## C[C@@H]1O[C@@H](Oc2c(-c3cc(O)c(O)c(O)c3)oc3cc(O)cc(O)c3c2=O)[C@H](O)[C@H](O)[C@H]1O [myricitrin]
Trifolium incarnatum; 7 incubation days
  seed germination compared with control: inhibited seed germination
Trifolium incarnatum; 7 days (FIG. 5)
  development of roots and hypocotyls: inhibited
Trifolium incarnatum; 7 days, 23±1° C., dark (FIG. 5)
  phytotoxic effect on the pre-emergence in comparison with the control: significant phytotoxic effect

## O=C1C[C@@H](c2ccccc2)Oc2cc(O)cc(O)c21 [pinocembrin, 5,7-di-OH-flavanone]
[1]
  effect on germination and radical elongation: act on germination and on radical elongation

## O=c1c(O)c(-c2ccc(O)c(O)c2)oc2cc(O)cc(O)c12 [quercetin, 3,5,7,3′,4′-penta-OH-flavone]
[1]
  effect on germination and radical elongation: act on germination and on radical elongation
